# According to patent US20120141479A1, “Histone Deacetylase Inhibitors Sensitize Cancer Cells To Epidermal Growth Factor Inhibitors” (priority 2007, published 2012):
# Experiments:
# EGFR = EGFR phosphorylation in E-cad transfected H157 cell lines; format: cell-based; settings: E-cad transfected H157 cell lines treated with EGF
# Experimental: Cell Culture, Drugs and MTS assay. Twenty NSCLC cell lines were used: squamous (NCI-H157, HCC95, HCC15 and H441), large-cell (H460, H1299, H2126 and H1264, a derivative of H460), adeno (Calu3, A549, H2122, H1648, H520, HCC78, HCC193, H2009, HCC44 and H3255) and bronchioalveolar (H358 and H322). The NSCLC cell lines, HCC78, H2126, HCC95, H1299, HCC193, HCC44, HCC15, H2009 were obtained from UTSW and the H3255 was a gift from Dr. Bruce Johnson. All lines were cultured in RPMI medium 1640 under standard conditions. […] The drugs were diluted in fresh media before each experiment, and the final dimethyl sulfoxide concentration was <0.1%. […] Growth inhibition was assessed by MTS (3-(4,5-dimethylthiazol-2-yl)-5-(3-carboxymethoxyphenyl)-2-(4-sulfophenyl)2H-tetrazolium, inner salt) assay (Promega, Madison, Wis.). […] The absorbency of each well is measured using an automated plate reader. The data was analyzed using a SlideWrite program to determine the IC50 of the drug. […] After sonication, the Bradford assay was used for protein quantification. […]
# The effect of E-cad on NSCLC cell lines apoptotic response to gefitinib was assessed by transfecting a gefitinib-resistant cell line, H157, with an E-cad-encoding adenovirus. […] Higher expression of E-cad was detected in the H157-E-cad-3 cell line compared to the H157-E-cad-3 cell line. […]
# H520 NSCLC cell line = test: Apoptosis and cell death analysis; format: cell-based; settings: 10 μM gefitinib
# Experimental: (§1) The effect of gefitinib on inducing apoptosis and cell death in NSCLC cell lines sensitive and resistant to gefitinib was evaluated. […] Expression of E-cad was evaluated in these cell lines.
# H157 NSCLC cell line = test: Apoptosis and cell death analysis; format: cell-based; settings: 10 μM gefitinib
# Experimental: as §1
# H460 NSCLC cell line = test: Apoptosis and cell death analysis; format: cell-based; settings: 10 μM gefitinib
# Experimental: as §1
# NSCLC patients = settings: single agent, phase I studies including chemotherapy resistant NSCLC patients; cited from earlier work
# A549 NSCLC cell line = test: Apoptosis and cell death analysis; format: cell-based; settings: 10 μM gefitinib
# Experimental: The effect of gefitinib on inducing apoptosis and cell death in NSCLC cell lines sensitive and resistant to gefitinib was evaluated. […].
# [1] = test system: Detroit562 head & neck cancer cell line; test: Modified MTT growth inhibition assay; format: cell-based
# Experimental: (§2) Combination administrations were performed as sequential treatments where the HDAC inhibitor was administer prior to the EGFR inhibitor, or simultaneous treatments in selected cell lines. Concentrations of HDAC inhibitors and EGFR inhibitors are indicated as μM concentrations in all experiments. SNDX275 was administered in three increasing concentrations, with a variety of ranges depending upon the cell line.
# (§3) Drugs were diluted in fresh medium before each experiment, and the final DMSO concentration was <0.1%. Growth inhibition was assessed using a modified MTT assay. 2×10^3 cells were plated in each well of 96-well flat-bottomed microtiter plates and drugs were added the next day. […] The microtiter plates were incubated for 4 hours at 37° C. The visible absorbance of each well was measured using an automated plate reader (Molecular Devices, Sunnyvale, Calif.), and data were analyzed using SlideWrite to determine the drug IC50.
# [2] = test system: Panc04.03 pancreatic cancer cell line; test: Modified MTT growth inhibition assay; format: cell-based; settings: Panc 04.03
# Experimental: as §2, §3
# [3] = test system: FaDu head & neck cancer cell line; test: Modified MTT growth inhibition assay; format: cell-based
# Experimental: as §2, §3
# [4] = test system: UMSCC22B head & neck cancer cell line; test: Modified MTT growth inhibition assay; format: cell-based
# Experimental: as §2, §3
# [5] = test system: HS766T pancreatic cancer cell line; test: Modified MTT growth inhibition assay; format: cell-based
# Experimental: as §2, §3
# [6] = test system: 1483 head & neck cancer cell line; test: Modified MTT growth inhibition assay; format: cell-based; settings: SNDX275 added as first drug
# Experimental: as §2, §3
# [7] = test system: MSK2922 head & neck cancer cell line; test: Modified MTT growth inhibition assay; format: cell-based; settings: SNDX275 added as first drug
# Experimental: as §2, §3
# [8] = test system: 584 head & neck cancer cell line; test: Modified MTT growth inhibition assay; format: cell-based; settings: SNDX275 added as first drug
# Experimental: as §2, §3
# [9] = test system: Panc02.03 pancreatic cancer cell line; test: Modified MTT growth inhibition assay; format: cell-based; settings: Panc 02.03
# Experimental: as §2, §3
# [10] = test system: Panc03.27 pancreatic cancer cell line; test: Modified MTT growth inhibition assay; format: cell-based; settings: Panc 03.27, both drugs added at the same time
# Experimental: as §2, §3
# [11] = test system: UMSCC19 head & neck cancer cell line; test: Modified MTT growth inhibition assay; format: cell-based
# Experimental: as §2, §3
# [12] = test system: HPAFII pancreatic cancer cell line; test: Modified MTT growth inhibition assay; format: cell-based; settings: SNDX275 added as first drug
# Experimental: as §2, §3
# E-cad = settings: lung cancer cell lines; cited from earlier work
# [13] = erlotinib 0.06 μM alone, SNDX275 added as first drug
# [14] = erlotinib 0.06 μM alone, both drugs added at the same time
# [15] = erlotinib 3.00 μM alone, SNDX275 added as first drug
# [16] = erlotinib 3.00 μM alone, both drugs added at the same time
# [17] = erlotinib 0.3 μM alone, SNDX275 added as first drug
# [18] = erlotinib 0.3 μM alone, both drugs added at the same time
# [19] = erlotinib 2.0 μM alone, SNDX275 added as first drug
# [20] = erlotinib 2.0 μM alone, both drugs added at the same time
# [21] = erlotinib 6.0 μM alone, SNDX275 added as first drug
# [22] = erlotinib 6.0 μM alone, both drugs added at the same time
# [23] = erlotinib 10.0 μM alone, both drugs added at the same time
molecule,measurement,setting,value
"EGF: Epidermal growth factor purchased from R&D Systems Inc. (NSDSECPLSHDGYCLHDGVCMYIEALDKYACNCVVGYIGERCQYRDLKWWELR; Epidermal growth factor; UniProt P01133 971-1023, looked up)",increase in EGFR phosphorylation,EGFR,two fold increase
COc1cc2ncnc(Nc3ccc(F)c(Cl)c3)c2cc1OCCCN1CCOCC1 [gefitinib],apoptotic or necrotic effect,H520 NSCLC cell line,no apoptotic or necrotic effect
same,apoptotic or necrotic effect,H157 NSCLC cell line,no apoptotic or necrotic effect
same,apoptotic or necrotic effect,H460 NSCLC cell line,no apoptotic or necrotic effect
same,response rates,NSCLC patients,about 10%
same,apoptotic or necrotic effect,A549 NSCLC cell line,no apoptotic or necrotic effect
C#Cc1cccc(Nc2ncnc3cc(OCCOC)c(OCCOC)cc23)c1 [erlotinib],response rates,NSCLC patients,about 10%
same,surviving,[1]; [13],81.459%
same,surviving,[1]; [14],73.569%
same,surviving,"[1]; erlotinib 0.60 μM alone, SNDX275 added as first drug",56.459%
same,surviving,"[1]; erlotinib 0.60 μM alone, both drugs added at the same time",40.826%
same,surviving,[1]; [15],28.582%
same,surviving,[1]; [16],17.946%
same,surviving,[2]; [17],77.213%
same,surviving,[2]; [18],65.993%
same,surviving,[2]; [19],53.936%
same,surviving,[2]; [20],63.603%
same,surviving,[2]; [21],30.300%
same,surviving,[2]; [22],47.335%
same,surviving,[3]; [13],83.931%
same,surviving,[3]; [14],98.703%
same,surviving,"[3]; erlotinib 0.30 μM alone, SNDX275 added as first drug",49.364%
same,surviving,"[3]; erlotinib 0.30 μM alone, both drugs added at the same time",55.823%
same,surviving,[3]; [15],24.489%
same,surviving,[3]; [16],27.463%
same,surviving,"[4]; erlotinib 3.0 μM alone, SNDX275 added as first drug",79.839%
same,surviving,"[4]; erlotinib 3.0 μM alone, both drugs added at the same time",78.643%
same,surviving,"[4]; erlotinib 7.0 μM alone, SNDX275 added as first drug",53.060%
same,surviving,"[4]; erlotinib 7.0 μM alone, both drugs added at the same time",56.412%
same,surviving,"[4]; erlotinib 10.0 μM alone, SNDX275 added as first drug",29.839%
same,surviving,[4]; [23],49.762%
same,surviving,"[5]; erlotinib 1.0 μM alone, SNDX275 added as first drug",71.523%
same,surviving,"[5]; erlotinib 1.0 μM alone, both drugs added at the same time",77.921%
same,surviving,[5]; [21],49.547%
same,surviving,[5]; [22],46.785%
same,surviving,[5]; [23],37.138%
same,surviving,[6]; erlotinib 6.0 μM alone,67.497%
same,surviving,[6]; erlotinib 8.0 μM alone,52.894%
same,surviving,[6]; erlotinib 10.0 μM alone,43.652%
same,surviving,[7]; erlotinib 0.5 μM alone,76.960%
same,surviving,[7]; erlotinib 5.0 μM alone,49.683%
same,surviving,[7]; erlotinib 10.0 μM alone,16.390%
same,surviving,[8]; erlotinib 3.0 μM alone,70.581%
same,surviving,[8]; erlotinib 7.0 μM alone,49.941%
same,surviving,[8]; erlotinib 10.0 μM alone,25.563%
same,surviving,[9]; [17],63.194%
same,surviving,[9]; [18],54.857%
same,surviving,[9]; [19],53.632%
same,surviving,[9]; [20],53.313%
same,surviving,[9]; [21],27.404%
same,surviving,[9]; [22],36.701%
same,surviving,[10]; erlotinib 0.03 μM alone,73.670%
same,surviving,[10]; erlotinib 0.60 μM alone,43.685%
same,surviving,[10]; erlotinib 6.00 μM alone,19.177%
same,surviving,"[11]; erlotinib 0.03 μM alone, SNDX275 added as first drug (first table)",70.495%
same,surviving,"[11]; erlotinib 0.03 μM alone, SNDX275 added as first drug (second table)",89.125%
same,surviving,"[11]; erlotinib 2.00 μM alone, SNDX275 added as first drug (first table)",40.636%
same,surviving,"[11]; erlotinib 2.00 μM alone, SNDX275 added as first drug (second table)",49.820%
same,surviving,"[11]; erlotinib 6.00 μM alone, SNDX275 added as first drug (first table)",22.618%
same,surviving,"[11]; erlotinib 6.00 μM alone, SNDX275 added as first drug (second table)",29.934%
same,surviving,[12]; erlotinib 0.03 μM alone,79.346%
same,surviving,[12]; erlotinib 1.00 μM alone,49.804%
same,surviving,[12]; erlotinib 6.00 μM alone,28.170%
CC(/C=C/C(=O)NO)=C\[C@@H](C)C(=O)c1ccc(N(C)C)cc1 [trichostatin A],effect of inhibiting HDAC on E-cad,E-cad,activation of E-cad
